We go through four compounds from ChEMBL document CHEMBL1135457 (J Med Chem, 2002).

Test [1] concerns the target T1, Mineralocorticoid receptor (Homo sapiens) (UniProt P08235).
T1 sequence (whole entry): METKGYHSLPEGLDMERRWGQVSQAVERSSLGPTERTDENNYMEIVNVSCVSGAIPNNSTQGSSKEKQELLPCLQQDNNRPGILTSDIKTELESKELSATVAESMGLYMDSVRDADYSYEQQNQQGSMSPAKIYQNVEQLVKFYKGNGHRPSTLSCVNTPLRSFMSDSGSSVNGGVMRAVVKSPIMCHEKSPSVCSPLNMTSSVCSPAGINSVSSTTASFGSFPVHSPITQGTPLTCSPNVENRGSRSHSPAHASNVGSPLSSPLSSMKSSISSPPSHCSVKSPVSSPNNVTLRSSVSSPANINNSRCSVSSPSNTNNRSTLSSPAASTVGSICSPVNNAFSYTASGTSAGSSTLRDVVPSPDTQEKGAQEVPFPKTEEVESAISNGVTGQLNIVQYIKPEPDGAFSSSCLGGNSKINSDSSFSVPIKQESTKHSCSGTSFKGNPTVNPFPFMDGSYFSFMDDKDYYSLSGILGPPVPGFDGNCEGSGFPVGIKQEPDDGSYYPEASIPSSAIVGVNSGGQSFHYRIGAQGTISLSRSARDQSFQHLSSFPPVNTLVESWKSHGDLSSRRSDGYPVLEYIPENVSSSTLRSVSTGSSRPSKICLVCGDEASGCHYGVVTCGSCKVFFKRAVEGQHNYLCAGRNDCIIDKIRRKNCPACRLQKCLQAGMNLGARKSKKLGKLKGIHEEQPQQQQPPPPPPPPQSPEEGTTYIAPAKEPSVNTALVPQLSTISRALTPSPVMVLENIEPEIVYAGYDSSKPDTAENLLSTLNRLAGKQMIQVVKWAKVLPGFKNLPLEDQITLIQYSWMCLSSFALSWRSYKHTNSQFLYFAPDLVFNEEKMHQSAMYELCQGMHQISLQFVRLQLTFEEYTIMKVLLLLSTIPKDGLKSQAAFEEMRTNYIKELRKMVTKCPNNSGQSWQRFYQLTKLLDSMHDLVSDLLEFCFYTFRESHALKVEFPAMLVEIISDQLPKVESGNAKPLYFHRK
Description: (§1) Antagonist activity against human mineralocorticoid receptor as displacement of radioligand

The target of the next test is Estrogen receptor beta (Homo sapiens, UniProt Q92731). The test can be described thus: Displacement of radioligand from human ER beta.
Sequence of Estrogen receptor beta (Q92731 whole entry): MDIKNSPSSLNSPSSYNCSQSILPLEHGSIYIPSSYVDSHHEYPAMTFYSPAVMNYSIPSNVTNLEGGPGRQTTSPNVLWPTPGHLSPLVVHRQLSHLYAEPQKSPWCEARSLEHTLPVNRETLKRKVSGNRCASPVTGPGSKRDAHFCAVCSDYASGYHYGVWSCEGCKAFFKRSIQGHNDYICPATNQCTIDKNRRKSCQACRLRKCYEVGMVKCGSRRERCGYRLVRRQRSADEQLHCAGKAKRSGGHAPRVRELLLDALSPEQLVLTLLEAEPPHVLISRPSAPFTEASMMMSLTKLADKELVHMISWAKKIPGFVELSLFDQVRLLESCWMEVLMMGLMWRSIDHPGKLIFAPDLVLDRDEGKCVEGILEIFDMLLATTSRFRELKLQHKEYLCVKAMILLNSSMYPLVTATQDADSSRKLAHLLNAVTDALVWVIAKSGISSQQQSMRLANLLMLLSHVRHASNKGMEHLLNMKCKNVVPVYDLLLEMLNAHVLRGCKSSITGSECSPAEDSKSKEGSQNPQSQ
Test [2] concerns the target T2, Progesterone receptor (Homo sapiens) (UniProt P06401).
T2 sequence (whole entry): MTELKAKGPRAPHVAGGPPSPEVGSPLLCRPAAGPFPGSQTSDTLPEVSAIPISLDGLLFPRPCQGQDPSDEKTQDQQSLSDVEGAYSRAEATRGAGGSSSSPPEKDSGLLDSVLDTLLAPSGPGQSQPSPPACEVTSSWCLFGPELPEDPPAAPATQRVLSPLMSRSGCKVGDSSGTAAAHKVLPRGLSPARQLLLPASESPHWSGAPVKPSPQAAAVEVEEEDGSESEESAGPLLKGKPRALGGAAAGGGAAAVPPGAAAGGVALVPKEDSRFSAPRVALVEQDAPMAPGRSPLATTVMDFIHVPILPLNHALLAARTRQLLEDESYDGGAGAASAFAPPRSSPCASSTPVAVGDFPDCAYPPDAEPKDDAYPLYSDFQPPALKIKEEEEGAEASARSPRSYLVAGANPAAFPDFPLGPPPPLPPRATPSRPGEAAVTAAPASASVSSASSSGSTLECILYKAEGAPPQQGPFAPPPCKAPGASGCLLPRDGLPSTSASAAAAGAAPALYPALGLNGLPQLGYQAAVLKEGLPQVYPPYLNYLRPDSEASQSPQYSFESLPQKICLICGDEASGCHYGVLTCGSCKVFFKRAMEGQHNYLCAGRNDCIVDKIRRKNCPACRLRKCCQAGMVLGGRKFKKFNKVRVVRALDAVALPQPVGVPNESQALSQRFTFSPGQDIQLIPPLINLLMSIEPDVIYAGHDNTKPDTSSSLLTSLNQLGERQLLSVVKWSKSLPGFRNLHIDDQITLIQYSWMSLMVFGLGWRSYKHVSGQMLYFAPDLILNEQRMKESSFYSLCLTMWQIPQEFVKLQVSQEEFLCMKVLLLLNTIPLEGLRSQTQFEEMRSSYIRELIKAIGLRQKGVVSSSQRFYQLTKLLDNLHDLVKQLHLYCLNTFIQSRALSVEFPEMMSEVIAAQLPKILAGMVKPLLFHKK
The test can be described thus: Displacement of 10 nM [3H]dexamethasone from human Progesterone receptor, percent inhibition at 10 uM.

For test [3], the target named is T3, Glucocorticoid receptor (Homo sapiens) (UniProt P04150).
T3 sequence (whole entry): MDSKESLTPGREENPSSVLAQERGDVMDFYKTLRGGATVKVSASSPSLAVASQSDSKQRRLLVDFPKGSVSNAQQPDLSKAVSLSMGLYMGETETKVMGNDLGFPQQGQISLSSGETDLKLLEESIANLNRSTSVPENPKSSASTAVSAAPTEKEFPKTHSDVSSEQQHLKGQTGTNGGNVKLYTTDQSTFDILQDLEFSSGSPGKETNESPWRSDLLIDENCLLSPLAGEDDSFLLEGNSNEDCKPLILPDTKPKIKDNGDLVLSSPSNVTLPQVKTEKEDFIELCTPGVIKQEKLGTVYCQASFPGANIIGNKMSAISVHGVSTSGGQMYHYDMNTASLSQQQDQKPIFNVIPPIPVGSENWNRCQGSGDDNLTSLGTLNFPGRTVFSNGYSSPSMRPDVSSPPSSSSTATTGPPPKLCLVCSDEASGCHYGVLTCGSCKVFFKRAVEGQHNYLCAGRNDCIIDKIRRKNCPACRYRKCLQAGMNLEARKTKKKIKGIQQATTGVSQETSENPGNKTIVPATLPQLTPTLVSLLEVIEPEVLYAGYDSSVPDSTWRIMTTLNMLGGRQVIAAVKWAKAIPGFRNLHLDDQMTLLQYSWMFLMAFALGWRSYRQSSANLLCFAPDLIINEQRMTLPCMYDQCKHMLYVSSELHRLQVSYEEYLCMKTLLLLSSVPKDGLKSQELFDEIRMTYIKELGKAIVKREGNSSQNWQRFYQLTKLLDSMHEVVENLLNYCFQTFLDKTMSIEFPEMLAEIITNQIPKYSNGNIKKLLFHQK
Description: (§2) Antagonist activity as displacement of 10 nM [3H]dexamethasone from human Glucocorticoid receptor

In test [4] the target is T1, Mineralocorticoid receptor (Homo sapiens). This is another data set of the same source.
Description: as §1
Another test has as its target T4, Progesterone receptor (Homo sapiens, UniProt P06401).
T4 sequence (P06401 whole entry): T2 sequence (whole entry)
The test can be described thus: Displacement of radioligand from human Progesterone receptor.

The target of test [5] is T3, Glucocorticoid receptor (Homo sapiens). This is another data set of the same source.
Description: as §2
In test [6] the target is T2, Progesterone receptor (Homo sapiens). The test can be described thus: Antagonist activity against human Progesterone receptor.

For the compound `CC#C[C@]1(O)CCC2C3CCC4=CC(=O)CC[C@]4(Cc4ccc(C)cc4)C3=CC[C@@]21C` (some centres not stated), the Kif in test [1] was above 1000 nM; in test [3] it was 12 nM. Besides, the Ki (in general, the dissociation constant of the complex between target and ligand, obtained from inhibition or displacement) on Estrogen receptor beta was above 10 µM. The inhibition – broadly, the drop in the measured response relative to a control, in per cent – in test [2] is 30%.

Compound `O=C1CC[C@@]2(Cc3ccccc3)c3ccc(O)cc3CC[C@@H]2C1` returned a Kif in test [4] above 1000 nM. Further, at Progesterone receptor, the Ki is above 10 µM.

Consider `Oc1ccc2c(c1)CC[C@@H]1C[C@@](O)(C#CCl)CC[C@@]21Cc1ccccc1`, for which the values for the Kif in test [1] and in test [3] were above 1000 nM and 4.1 nM, respectively. On Progesterone receptor, this compound came in with a Ki above 10 µM.

In the case of `CC#C[C@@]1(O)CC[C@@]2(Cc3ccccc3)c3ccc(O)cc3CC[C@@H]2C1`, the Kif is 10 nM in test [5] and above 1000 nM in test [6]. Also, the Ki on Progesterone receptor is above 10 µM.
